Laboratory results: the supplement of paper PMC10307832

How the values were obtained:
[1] = compound: CC(C)C[C@@H](C(=O)N[C@H](C(=O)OC1CCCC1)c1ccccc1)[C@H](O)C(=O)NO [Tosedostat] + CCNC(=O)c1noc(-c2cc(C(C)C)c(O)cc2O)c1-c1ccc(CN2CCOCC2)cc1 [Luminespib] (partner 0.01 µM); assay: relative viability (nuclei count vs DMSO), 5 days (fraction); higher = more cells survive
Procedure, shortened: (§1)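 Nuclei were stained with Hoechst during a one-step fixation (final 0.05% Triton X-100, 1% formaldehyde, 1 ug/ml Hoechst) carried out 5 days after dosing, then counted on 4× images. The cells, lung cancer lines in 1536-well plates, had been dosed by pin tool the day after seeding with one drug alone or a fixed anchor-drug dose plus five library-drug doses (not always all listed) in √10 steps. Relative viability is the nuclei count in treated wells divided by that in vehicle wells, and each value is the median of duplicate plates.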

[2] = compound: CC(C)C[C@@H](C(=O)N[C@H](C(=O)OC1CCCC1)c1ccccc1)[C@H](O)C(=O)NO [Tosedostat] + Cc1nc(Nc2ncc(C(=O)Nc3c(C)cccc3Cl)s2)cc(N2CCN(CCO)CC2)n1 [Dasatinib] (partner 0.075 µM); assay: as above
Procedure, shortened: as §1

Cell Line	relative viability ([1]; first compound 0.02 µM)	relative viability ([1]; first compound 0.06325 µM)	relative viability ([1]; first compound 0.2 µM)	relative viability ([1]; first compound 0.6325 µM)	relative viability ([1]; first compound 2 µM)	relative viability ([2]; first compound 0.02 µM)	relative viability ([2]; first compound 0.06325 µM)	relative viability ([2]; first compound 0.2 µM)	relative viability ([2]; first compound 0.6325 µM)	relative viability ([2]; first compound 2 µM)
PC-3 [JPC-3]	0.735	0.734	0.731	0.692	0.537	0.999	1.06	0.929	0.621	0.7
COR-L23	0.792	0.729	0.687	0.698	0.504	0.546	0.469	0.495	0.381	0.332
COR-L 105	0.693	0.726	0.835	0.733	0.693	0.348	0.37	0.365	0.323	0.298
LK-2	0.175	0.21	0.167	0.221	0.214	0.29	0.275	0.296	0.4	0.267
201T	0.969	1.2	1.14	1.24	1.18	0.566	0.632	0.635	0.717	0.553
HCC-44	1.29	0.987	0.985	0.957	0.834					
NCI-H838	0.323	0.284	0.308	0.389	0.355	0.317	0.342	0.299	0.329	0.27
H3255	1.02	0.807	0.906	0.683	0.75	0.278	0.35	0.347	0.429	0.33
PC-14	0.163	0.197	0.16	0.207	0.127	0.245	0.237	0.263	0.192	0.208
NCI-H2228	0.149	0.132	0.198	0.188	0.12	0.51	0.497	0.494	0.344	0.338
NCI-H322M	0.835	0.895	0.862	0.826	0.788	0.272	0.256	0.268	0.279	0.246
NCI-H1944	0.855	0.599	0.758	0.724	0.748	0.226	0.211	0.215	0.208	0.194
NCI-H1793	0.166	0.233	0.322	0.245	0.249	0.431	0.408	0.388	0.316	0.37
NCI-H727	0.305	0.513		0.427	0.254	0.404	0.339		0.311	0.29
NCI-H661	0.958	0.957	0.977	0.909	0.885	1.02	0.834	0.846	0.815	0.695
EKVX	0.796	0.884	0.853	0.784	0.806	0.586	0.565	0.548	0.588	0.512
NCI-H358	0.229	0.304	0.234	0.293	0.187	0.169	0.183	0.208	0.211	0.208

Cell Line	relative viability ([1]; first compound 0.02 µM)	relative viability ([1]; first compound 0.06325 µM)	relative viability ([1]; first compound 0.2 µM)	relative viability ([1]; first compound 0.6325 µM)	relative viability ([1]; first compound 2 µM)	relative viability ([2]; first compound 0.02 µM)	relative viability ([2]; first compound 0.06325 µM)	relative viability ([2]; first compound 0.2 µM)	relative viability ([2]; first compound 0.6325 µM)	relative viability ([2]; first compound 2 µM)
EPLC-272H	0.246	0.265	0.278	0.285	0.225	0.363	0.353	0.316	0.299	0.177
NCI-H1666	1.02	1.01	0.969	0.994	1.11	0.771	0.871	0.854	0.848	0.874
NCI-H1395	0.635	0.774	0.664	0.663	0.559	0.383	0.426	0.448	0.468	0.41
NCI-H2405	0.8	0.809	0.838	0.786	0.79	0.221	0.266	0.218	0.211	0.164
NCI-H2126	0.848	0.905	0.91	0.878	0.654	0.611	0.662	0.636	0.63	0.558
SW 900	0.175	0.182	0.19	0.17	0.155	0.54	0.485	0.714	0.875	0.416
NCI-H460	0.0336	0.0335	0.03	0.0417	0.0255	0.601	0.644	0.57	0.459	0.498
NCI-H1993	0.87	0.736	1.05	0.827	0.781	0.471	0.561	0.502	0.519	0.505
HCC-78						0.317	0.439	0.37	0.374	0.493
LU99A	0.316	0.245	0.337	0.277	0.232	0.517	0.495	0.506	0.424	0.413
NCI-H520	0.172	0.252	0.209	0.291	0.225	0.146	0.202		0.243	0.28
HCC-827	0.587	0.73	0.651	0.362	0.695	0.308	0.34	0.301	0.377	0.288
NCI-H1975	0.208	0.195	0.382	0.325	0.19	0.369	0.358	0.35	0.268	0.34
NCI-H2085	0.377	0.969	0.491	0.407	0.4	0.205	0.234	0.256	0.276	0.307
NCI-H1792	0.427	0.356	0.433	0.802	0.935	0.777	0.756	0.743	0.79	0.691
NCI-H1734	0.183	0.197	0.194	0.229	0.232	0.523	0.477	0.436	0.466	0.446
NCI-H650	0.952	0.773	0.834	0.714	0.755	0.471	0.49	0.424	0.422	0.388
